Values quoted from earlier work in patent US7534771B2, “Tricyclic-nucleoside prodrugs for treating viral infections” (SmithKline Beecham Corporation, priority 2005, dated 2009).

Conditions: patients treated at currently recommended doses

SMILES: NC(=O)c1ncn([C@@H]2O[C@H](CO)[C@@H](O)[C@H]2O)n1 [Ribavirin]
- patients with significant hemolysis: 10-20%
